From the supplement of paper PMC10307832

Legend:
Assay in all cases: relative viability (nuclei count vs DMSO), 5 days (fraction); higher = more cells survive
Crenolanib + Linsitinib = compound: CC1(COc2ccc3c(c2)ncn3-c2ccc3cccc(N4CCC(N)CC4)c3n2)COC1 [Crenolanib] + C[C@]1(O)C[C@@H](c2nc(-c3ccc4ccc(-c5ccccc5)nc4c3)c3c(N)nccn32)C1 [Linsitinib] (partner 1 µM)
In short: (§1)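 The day after seeding in 1536-well plates, lung cancer cell lines were treated by pin tool with a single drug, or with a fixed anchor-drug dose together with five library-drug doses (not always all listed) in √10 steps. After 5 days, a combined fix-and-stain solution (final 0.05% Triton X-100, 1% formaldehyde, 1 ug/ml Hoechst) was added. Nuclei counted on 4× images gave relative viability as treated counts over vehicle counts, reported as the median of duplicate plates.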

Crenolanib + Tozasertib = compound: CC1(COc2ccc3c(c2)ncn3-c2ccc3cccc(N4CCC(N)CC4)c3n2)COC1 [Crenolanib] + Cc1cc(Nc2cc(N3CCN(C)CC3)nc(Sc3ccc(NC(=O)C4CC4)cc3)n2)n[nH]1 [Tozasertib] (partner 0.1 µM)
In short: as §1

Tivantinib + Foretinib = compound: O=C1NC(=O)[C@@H](c2cn3c4c(cccc24)CCC3)[C@@H]1c1c[nH]c2ccccc12 [Tivantinib] + COc1cc2c(Oc3ccc(NC(=O)C4(C(=O)Nc5ccc(F)cc5)CC4)cc3F)ccnc2cc1OCCCN1CCOCC1 [Foretinib] (partner 0.25 µM)
In short: as §1

Tivantinib + Alpelisib = compound: O=C1NC(=O)[C@@H](c2cn3c4c(cccc24)CCC3)[C@@H]1c1c[nH]c2ccccc12 [Tivantinib] + Cc1nc(NC(=O)N2CCC[C@H]2C(N)=O)sc1-c1ccnc(C(C)(C)C(F)(F)F)c1 [Alpelisib] (partner 2 µM)
In short: as §1

UMC-11 gave a relative viability (Crenolanib + Linsitinib; first compound 0.01 µM) of 1.01, a relative viability (Crenolanib + Linsitinib; first compound 0.03162 µM) of 0.997 and a relative viability (Crenolanib + Linsitinib; first compound 0.1 µM) of 0.978. The relative viability (Crenolanib + Linsitinib; first compound 0.3162 µM) was 1.14, the relative viability (Crenolanib + Linsitinib; first compound 1 µM) was 0.952 and the relative viability (Crenolanib + Tozasertib; first compound 0.01 µM) was 0.193. For the same cell line, the relative viability (Crenolanib + Tozasertib; first compound 0.03162 µM) was 0.207, the relative viability (Crenolanib + Tozasertib; first compound 0.1 µM) was 0.213 and the relative viability (Crenolanib + Tozasertib; first compound 0.3162 µM) was 0.189. It also gave a relative viability (Crenolanib + Tozasertib; first compound 1 µM) of 0.192, a relative viability (Tivantinib + Foretinib; first compound 0.01 µM) of 1.04 and a relative viability (Tivantinib + Foretinib; first compound 0.03162 µM) of 0.975. It also gave a relative viability (Tivantinib + Foretinib; first compound 0.1 µM) of 0.944, a relative viability (Tivantinib + Foretinib; first compound 0.3162 µM) of 1.01 and a relative viability (Tivantinib + Alpelisib; first compound 0.01 µM) of 0.961. It also gave a relative viability (Tivantinib + Alpelisib; first compound 0.03162 µM) of 0.939, a relative viability (Tivantinib + Alpelisib; first compound 0.1 µM) of 0.876 and a relative viability (Tivantinib + Alpelisib; first compound 0.3162 µM) of 0.939.
